This assay has as its system HIV-1 (H9IIIB strain). Briefly: Cell-based HIV infection assay using a reporter (Cell-Based), MT4-GFP cells. As to conditions: Human immunodeficiency virus 1, MT4-GFP cells infected with HIV-1 H9IIIB; 50% normal human serum; mean of at least two independent experiments; read-out: Cell-based IP. The method in brief: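 MT4-GFP cells (HIV LTR-driven GFP) infected 24 h with HIV-1 H9IIIB at low MOI, then washed and plated with compounds in RPMI + 50% normal human serum, 0.4% DMSO final. Green cells counted at 24 and 48 h; R0 = 48 h/24 h ratio, inhibition normalized to DMSO and triple-drug control; IC50 from 4-parameter fit.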

Drawing on US9840478B2 (MERCK SHARP & DOHME CORP., priority 2013, dated 2017), this text covers IC50 for 23 compounds.

Molecules are shown by their SMILES.

Take `O=C(C[C@@H](c1ccc(F)cc1)c1cc(F)cc(F)c1)Nc1cncc(F)c1CC[C@H]1CNCCN1S(=O)(=O)c1cccnc1` [Example 305, (3S)-3-(3,5-difluorophenyl)-3-(4-fluorophenyl)-N-(5-fluoro-4-{2-[(2S)-1-(pyridin-3-ylsulfonyl)piperazin-2-yl]ethyl}pyridin-3-yl)propanamide]: the IC50 was determined as 8.2 nM.
As for `Cn1ccc(S(=O)(=O)N2CCNC[C@@H]2CCc2c(F)cncc2NC(=O)C[C@@H](c2ccc(F)cc2)c2cc(F)cc(F)c2)n1` [Example 306, (3S)-3-(3,5-difluorophenyl)-N-[5-fluoro-4-(2-{(2S)-1-[(1-methyl-1H-pyrazol-3-yl)sulfonyl]piperazin-2-yl}ethyl)pyridin-3-yl]-3-(4-fluorophenyl)propanamide], the IC50 was found to be 6.5 nM.
For `Nc1ccc(S(=O)(=O)N2CCNC[C@@H]2CCc2c(F)cncc2NC(=O)C[C@@H](c2ccc(F)cc2)c2cc(F)cc(F)c2)cn1` [Example 307, (3S)-N-[4-(2-{(2S)-1-[(6-aminopyridin-3-yl)sulfonyl]piperazin-2-yl}ethyl)-5-fluoropyridin-3-yl]-3-(3,5-difluorophenyl)-3-(4-fluorophenyl)propanamide], the IC50 amounted to 130 nM.
For `O=C1COc2ccc(S(=O)(=O)N3CCNC[C@@H]3CCc3c(F)cncc3NC(=O)C[C@@H](c3ccc(F)cc3)c3cc(F)cc(F)c3)cc2N1` [Example 308, (3S)-3-(3,5-difluorophenyl)-N-[5-fluoro-4-(2-{(2S)-1-[(3-oxo-3,4-dihydro-2H-1,4-benzoxazin-6-yl)sulfonyl]piperazin-2-yl}ethyl)pyridin-3-yl]-3-(4-fluorophenyl)propanamide], the IC50 came out at 180 nM.
Turning to `CC(=O)Nc1nc(S(=O)(=O)N2CCNC[C@@H]2CCc2c(F)cncc2NC(=O)C[C@@H](c2ccc(F)cc2)c2cc(F)cc(F)c2)c(C)s1` [Example 309, (3S)-N-(4-{2-[(2S)-1-{[2-(acetylamino)-5-methyl-1,3-thiazol-4-yl]sulfonyl}piperazin-2-yl]ethyl}-5-fluoropyridin-3-yl)-3-(3,5-difluorophenyl)-3-(4-fluorophenyl)propanmide], the IC50 came to 140 nM.
For the compound `O=C(C[C@@H](c1ccc(F)cc1)c1cc(F)cc(F)c1)Nc1cncc(F)c1CC[C@H]1CNCCN1S(=O)(=O)Cc1ccc(C(F)(F)F)cc1` [Example 310, (3S)-3-(3,5-difluorophenyl)-3-(4-fluorophenyl)-N-(5-fluoro-4-{2-[(2S)-1-{[4-(trifluoromethyl)benzyl]sulfonyl}piperazin-2-yl]ethyl}pyridin-3-yl)propanamide], the IC50 turned out to be 1700 nM.
For `O=C(C[C@@H](c1ccc(F)cc1)c1cc(F)cc(F)c1)Nc1cncc(F)c1CC[C@H]1CNCCN1S(=O)(=O)c1ccc(-c2ccccn2)s1` [Example 311, (3S)-3-(3,5-difluorophenyl)-3-(4-fluorophenyl)-N-[5-fluoro-4-(2-{(2S)-1-[(5-pyridin-2-ylthiophen-2-yl)sulfonyl]piperazin-2-yl}ethyl)pyridin-3-yl]propanamide] the value was 20 nM; for `CCOC(=O)c1nc(-c2ccc(S(=O)(=O)N3CCNC[C@@H]3CCc3c(F)cncc3NC(=O)C[C@@H](c3ccc(F)cc3)c3cc(F)cc(F)c3)s2)no1` [Example 312, ethyl 3-[5-({(2S)-2-[2-(3-{[(3S)-3-(3,5-difluorophenyl)-3-(4-fluorophenyl)propanoyl]amino}-5-fluoropyridin-4-yl)ethyl]piperazin-1-yl}sulfonyl)thiophen-2-yl]-1,2,4-oxadiazole-5-carboxylate], 140 nM; for `CS(=O)(=O)c1ccc(S(=O)(=O)N2CCNC[C@@H]2CCc2c(F)cncc2NC(=O)C[C@@H](c2ccc(F)cc2)c2cc(F)cc(F)c2)cc1` [Example 313, (3S)-3-(3,5-difluorophenyl)-N-(5-fluoro-4-{2-[(2S)-1-{[4-(methylsulfonyl)phenyl]sulfonyl}piperazin-2-yl]ethyl}pyridin-3-yl)-3-(4-fluorophenyl)propanamide], 48 nM.
Under `O=C(C[C@@H](c1ccc(F)cc1)c1cc(F)cc(F)c1)Nc1cncc(F)c1CC[C@H]1CNCCN1S(=O)(=O)c1ccc(OC(F)(F)F)cc1` [Example 314, (3S)-3-(3,5-difluorophenyl)-3-(4-fluorophenyl)-N-(5-fluoro-4-{2-[(2S)-1-{[4-(trifluoromethoxy)phenyl]sulfonyl}piperazin-2-yl]ethyl}pyridin-3-yl)propanamide] stands 9.2 nM; under `O=C(C[C@@H](c1ccc(F)cc1)c1cc(F)cc(F)c1)Nc1cncc(F)c1CC[C@H]1CNCCN1S(=O)(=O)CC(F)(F)F` [Example 315, (3S)-3-(3,5-difluorophenyl)-3-(4-fluorophenyl)-N-[5-fluoro-4-(2-{(2S)-1-[(2,2,2-trifluoroethyl)sulfonyl]piperazin-2-yl}ethyl)pyridin-3-yl]propanamide], 1900 nM; under `Cn1cc(S(=O)(=O)N2CCNC[C@@H]2CCc2c(F)cncc2NC(=O)C[C@@H](c2ccc(F)cc2)c2cc(F)cc(F)c2)cn1` [Example 316, (3S)-3-(3,5-difluorophenyl)-N-[5-fluoro-4-(2-{(2S)-1-[(1-methyl-1H-pyrazol-4-yl)sulfonyl]piperazin-2-yl}ethyl)pyridin-3-yl]-3-(4-fluorophenyl)propanamide], 19 nM.
Take `CCCS(=O)(=O)N1CCNC[C@@H]1CCc1c(F)cncc1NC(=O)C[C@@H](c1ccc(F)cc1)c1cc(F)cc(F)c1` [Example 317, (3S)-3-(3,5-difluorophenyl)-3-(4-fluorophenyl)-N-(5-fluoro-4-{2-[(2S)-1-(propylsulfonyl)piperazin-2-yl]ethyl}pyridin-3-yl)propanamide]: the IC50 came out at 24 nM.
As for `CC(=O)Nc1nc(C)c(S(=O)(=O)N2CCNC[C@@H]2CCc2c(F)cncc2NC(=O)C[C@@H](c2ccc(F)cc2)c2cc(F)cc(F)c2)s1` [Example 318, (3S)-N-(4-{2-[(2S)-1-{[2-(acetylamino)-4-methyl-1,3-thiazol-5-yl]sulfonyl}piperazin-2-yl]ethyl}-5-fluoropyridin-3-yl)-3-(3,5-difluorophenyl)-3-(4-fluorophenyl)propanamide], the IC50 turned out to be 97 nM.
`O=Cc1ccc(S(=O)(=O)N2CCNC[C@@H]2CCc2c(F)cncc2NC(=O)C[C@@H](c2ccc(F)cc2)c2cc(F)cc(F)c2)cc1` [Example 319, (3S)-3-(3,5-difluorophenyl)-N-[5-fluoro-4-(2-{(2S)-1-[(4-formylphenyl)sulfonyl]piperazin-2-yl}ethyl)pyridin-3-yl]-3-(4-fluorophenyl)propanamide]: the IC50 stood at 59 nM.
Consider `CC(=O)Nc1cccc(S(=O)(=O)N2CCNC[C@@H]2CCc2c(F)cncc2NC(=O)C[C@@H](c2ccc(F)cc2)c2cc(F)cc(F)c2)c1` [Example 320, (3S)-N-(4-{2-[(2S)-1-{[3-(acetylamino)phenyl]sul-fonyl}piperazin-2-yl]ethyl}-5-fluoropyridin-3-yl)-3-(3,5-difluorophenyl)-3-(4-fluorophenyl)propanamide], for which the IC50 is 36 nM.
For `O=C(C[C@@H](c1ccc(F)cc1)c1cc(F)cc(F)c1)Nc1cncc(F)c1CC[C@H]1CNCCN1S(=O)(=O)c1cnc2ccccc2c1` [Example 321, (3S)-3-(3,5-difluorophenyl)-3-(4-fluorophenyl)-N-(5-fluoro-4-{2-[(2S)-1-(quinolin-3-ylsulfonyl)piperazin-2-yl]ethyl}pyridin-3-yl)propanamide] the value was 29 nM; for `O=C(C[C@@H](c1ccc(F)cc1)c1cc(F)cc(F)c1)Nc1cncc(F)c1CC[C@H]1CNCCN1S(=O)(=O)N1CCc2ccccc2C1` [Example 322, (3S)-3-(3,5-difluorophenyl)-N-(4-{2-[(2S)-1-(3,4-dihydroisoquinolin-2(1H)-ylsulfonyl)piperazin-2-yl]ethyl}-5-fluoropyridin-3-yl)-3-(4-fluorophenyl)propanamide], 530 nM; for `O=C(C[C@@H](c1ccc(F)cc1)c1cc(F)cc(F)c1)Nc1cncc(F)c1CC[C@H]1CNCCN1S(=O)(=O)N1CCCC1` [Example 323, (3S)-3-(3,5-difluorophenyl)-3-(4-fluorophenyl)-N-(5-fluoro-4-{2-[(2S)-1-(pyrrolidin-1-ylsulfonyl)piperazin-2-yl]ethyl}pyridin-3-yl)propanamide], 4.8 nM.
On to `CC(C)NS(=O)(=O)N1CCNC[C@@H]1CCc1c(F)cncc1NC(=O)C[C@@H](c1ccc(F)cc1)c1cc(F)cc(F)c1` [Example 324, (3S)-3-(3,5-difluorophenyl)-N-[5-fluoro-4-(2-{(2S)-1-[(1-methylethyl)sulfamoyl]piperazin-2-yl}ethyl)pyridin-3-yl]-3-(4-fluorophenyl)propanamide], for which the IC50 was 40 nM.
Consider `O=C(C[C@@H](c1ccc(F)cc1)c1cc(F)cc(F)c1)Nc1cncc(F)c1CC[C@H]1CNCCN1S(=O)(=O)N1CCCCC1` [Example 325, (3S)-3-(3,5-difluorophenyl)-3-(4-fluorophenyl)-N-(5-fluoro-4-{2-[(2S)-1-(piperidin-1-ylsulfonyl)piperazin-2-yl]ethyl}pyridin-3-yl)propanamide], for which the IC50 turned out to be 13 nM.
In the case of `O=C(C[C@@H](c1ccc(F)cc1)c1cc(F)cc(F)c1)Nc1cncc(F)c1CC[C@H]1CNCCN1S(=O)(=O)N1CCOCC1` [Example 326, (3S)-3-(3,5-difluorophenyl)-N-(5-fluoro-4-{2-[(2S)-1-(morpholin-4-ylsulfonyl)piperazin-2-yl]ethyl}pyridin-3-yl)-3-(4-fluorophenyl)propanamide], the IC50 is 8 nM.
Under `O=C(C[C@@H](c1ccc(F)cc1)c1cc(F)cc(F)c1)Nc1cncc(F)c1CC[C@H]1CNCCN1S(=O)(=O)N1CC[C@@H](F)C1` [Example 327, (3S)-3-(3,5-difluorophenyl)-N-(5-fluoro-4-{2-[(2)S-1-{[(3R)-3-fluoropyrrolidin-1-yl]sulfonyl}piperazin-2-yl]ethyl}pyridin-3-yl)-3-(4-fluorophenyl)propanamide] stands 9.4 nM.
